Key:
Test in all cases: drug sensitivity score (DSS), CellTox Green (DSS (AUC-based score)); higher = stronger drug effect (viability inhibition or cytotoxicity); extreme values may be limits of the assay
Conditions in all cases: incubation time: 72 h
MDA-MB-468 = tested on: MDA-MB-468
How it was run: (§1)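 For 72 h, breast cancer cell lines seeded at 20 µl suspension per well in 384-well plates were incubated with compound at 5 concentrations in 10-fold steps spanning a 10,000-fold range that differed by compound. The first reading was CellTox Green fluorescence at 485/520 nm, and the second was CellTiter-Glo luminescence after 10 min at room temperature. Both were normalised per plate to 0.1 % DMSO and a positive kill control, and the drug sensitivity score was obtained from the area under the fitted dose-response curve.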

BT-549 = tested on: BT-549
How it was run: as §1

MDA-MB-436 = tested on: MDA-MB-436
How it was run: as §1

CAL-85-1 = tested on: CAL-85-1
How it was run: as §1

HCC1599 = tested on: HCC1599
How it was run: as §1

HCC1143 = tested on: HCC1143
How it was run: as §1

MDA-MB-231 = tested on: MDA-MB-231
How it was run: as §1

HDQ-P1 = tested on: HDQ-P1
How it was run: as §1

MCF-10A = tested on: MCF-10A
How it was run: as §1

DU-4475 = tested on: DU-4475
How it was run: as §1

Compound: CC1(C)CCC(CN2CCN(c3ccc(C(=O)NS(=O)(=O)c4ccc(NCC5CCOCC5)c([N+](=O)[O-])c4)c(Oc4cnc5[nH]ccc5c4)c3)CC2)=C(c2ccc(Cl)cc2)C1 [ABT-199]
- drug sensitivity score (MDA-MB-468): 13.3
- drug sensitivity score (BT-549): 1.45
- drug sensitivity score (MDA-MB-436): 0
- drug sensitivity score (CAL-85-1): 0
- drug sensitivity score (HCC1599): 0
- drug sensitivity score (HCC1143): 0
- drug sensitivity score (MDA-MB-231): 3.14
- drug sensitivity score (HDQ-P1): 0
- drug sensitivity score (MCF-10A): 0
- drug sensitivity score (DU-4475): 0

Compound: Oc1ncnc2[nH]ncc12 [Allopurinol]
- drug sensitivity score (MDA-MB-468): 0
- drug sensitivity score (BT-549): 0
- drug sensitivity score (MDA-MB-436): 0
- drug sensitivity score (CAL-85-1): 0.422
- drug sensitivity score (HCC1599): 0
- drug sensitivity score (HCC1143): 0
- drug sensitivity score (MDA-MB-231): 0
- drug sensitivity score (HDQ-P1): 0
- drug sensitivity score (MCF-10A): 0
- drug sensitivity score (DU-4475): 0

Compound: O=C1CN2Cc3c(ccc(Cl)c3Cl)N=C2N1 [Anagrelide]
- drug sensitivity score (MDA-MB-468): 0
- drug sensitivity score (BT-549): 0
- drug sensitivity score (MDA-MB-436): 0
- drug sensitivity score (CAL-85-1): 0
- drug sensitivity score (HCC1599): 0
- drug sensitivity score (HCC1143): 0
- drug sensitivity score (MDA-MB-231): 0
- drug sensitivity score (HDQ-P1): 0
- drug sensitivity score (MCF-10A): 0
- drug sensitivity score (DU-4475): 0

Compound: Nc1ncn([C@@H]2O[C@H](CO)[C@@H](O)[C@H]2O)c(=O)n1 [Azacitidine]
- drug sensitivity score (MDA-MB-468): 0.523
- drug sensitivity score (BT-549): 0
- drug sensitivity score (MDA-MB-436): 1.61
- drug sensitivity score (CAL-85-1): 0
- drug sensitivity score (HCC1599): 0
- drug sensitivity score (HCC1143): 0
- drug sensitivity score (MDA-MB-231): 0
- drug sensitivity score (HDQ-P1): 0
- drug sensitivity score (MCF-10A): 0
- drug sensitivity score (DU-4475): 0

Compound: O=NN(CCCl)C(=O)NCCCl [Carmustine]
- drug sensitivity score (MDA-MB-468): 0
- drug sensitivity score (BT-549): 0
- drug sensitivity score (MDA-MB-436): 0
- drug sensitivity score (CAL-85-1): 0
- drug sensitivity score (HCC1599): 0
- drug sensitivity score (HCC1143): 0
- drug sensitivity score (MDA-MB-231): 0
- drug sensitivity score (HDQ-P1): 0
- drug sensitivity score (MCF-10A): 0
- drug sensitivity score (DU-4475): 0

Compound: CC1=C2C[C@H]3[C@@H](CC=C4C[C@@H](O)CC[C@@]43C)[C@@H]2CC[C@]12O[C@@H]1C[C@H](C)CN[C@H]1[C@H]2C [Cyclopamine]
- drug sensitivity score (MDA-MB-468): 0
- drug sensitivity score (BT-549): 0
- drug sensitivity score (MDA-MB-436): 0
- drug sensitivity score (CAL-85-1): 0
- drug sensitivity score (HCC1599): 0
- drug sensitivity score (HCC1143): 2.47
- drug sensitivity score (MDA-MB-231): 0
- drug sensitivity score (HDQ-P1): 0
- drug sensitivity score (MCF-10A): 0
- drug sensitivity score (DU-4475): 0

Compound: CC(=O)N(O)CCCCCNC(=O)CCC(=O)N(O)CCCCCNC(=O)CCC(=O)N(O)CCCCCN [Deferoxamine]
- drug sensitivity score (MDA-MB-468): 0
- drug sensitivity score (BT-549): 0
- drug sensitivity score (MDA-MB-436): 0
- drug sensitivity score (CAL-85-1): 0
- drug sensitivity score (HCC1599): 0
- drug sensitivity score (HCC1143): 0
- drug sensitivity score (MDA-MB-231): 0
- drug sensitivity score (HDQ-P1): 0
- drug sensitivity score (MCF-10A): 0
- drug sensitivity score (DU-4475): 0

Compound: CC(=O)O[C@@]12CO[C@@H]1C[C@H](O)[C@@]1(C)C(=O)[C@H](O)C3=C(C)[C@@H](OC(=O)[C@H](O)[C@@H](NC(=O)OC(C)(C)C)c4ccccc4)C[C@@](O)([C@@H](OC(=O)c4ccccc4)[C@H]21)C3(C)C [Docetaxel]
- drug sensitivity score (MDA-MB-468): 0
- drug sensitivity score (BT-549): 11.4
- drug sensitivity score (MDA-MB-436): 0
- drug sensitivity score (CAL-85-1): 25.5
- drug sensitivity score (HCC1599): 0
- drug sensitivity score (HCC1143): 5.08
- drug sensitivity score (MDA-MB-231): 31
- drug sensitivity score (HDQ-P1): 6.92
- drug sensitivity score (MCF-10A): 19.1
- drug sensitivity score (DU-4475): 0

Compound: C[C@]1(O)C[C@@H](c2nc(-c3ccc4ccc(-c5ccccc5)nc4c3)c3c(N)nccn32)C1 [Linsitinib]
- drug sensitivity score (MDA-MB-468): 0
- drug sensitivity score (BT-549): 0
- drug sensitivity score (MDA-MB-436): 14.3
- drug sensitivity score (CAL-85-1): 0
- drug sensitivity score (HCC1599): 0
- drug sensitivity score (HCC1143): 0
- drug sensitivity score (MDA-MB-231): 4.69
- drug sensitivity score (HDQ-P1): 0
- drug sensitivity score (MCF-10A): 0
- drug sensitivity score (DU-4475): 0

Compound: CC1(C)CNc2cc(NC(=O)c3cccnc3NCc3ccncc3)ccc21 [Motesanib]
- drug sensitivity score (MDA-MB-468): 0
- drug sensitivity score (BT-549): 0
- drug sensitivity score (MDA-MB-436): 0
- drug sensitivity score (CAL-85-1): 0
- drug sensitivity score (HCC1599): 0
- drug sensitivity score (HCC1143): 0
- drug sensitivity score (MDA-MB-231): 0
- drug sensitivity score (HDQ-P1): 0
- drug sensitivity score (MCF-10A): 0
- drug sensitivity score (DU-4475): 0

Compound: Cc1ccc([N+](=O)[O-])cc1S(=O)(=O)N(C)/N=C/c1cnc2ccc(Br)cn12 [PIK-75]
- drug sensitivity score (MDA-MB-468): 19.6
- drug sensitivity score (BT-549): 16.9
- drug sensitivity score (MDA-MB-436): 0
- drug sensitivity score (CAL-85-1): 25.2
- drug sensitivity score (HCC1599): 7.69
- drug sensitivity score (HCC1143): 9.38
- drug sensitivity score (MDA-MB-231): 40
- drug sensitivity score (HDQ-P1): 11.6
- drug sensitivity score (MCF-10A): 32.7
- drug sensitivity score (DU-4475): 7.23

Compound: CC(=O)c1c(C)c2cnc(Nc3ccc(N4CCNCC4)cn3)nc2n(C2CCCC2)c1=O [Palbociclib]
- drug sensitivity score (MDA-MB-468): 0
- drug sensitivity score (BT-549): 0
- drug sensitivity score (MDA-MB-436): 0
- drug sensitivity score (CAL-85-1): 0
- drug sensitivity score (HCC1599): 0
- drug sensitivity score (HCC1143): 0
- drug sensitivity score (MDA-MB-231): 0
- drug sensitivity score (HDQ-P1): 0
- drug sensitivity score (MCF-10A): 0
- drug sensitivity score (DU-4475): 0

Compound: COc1cc(F)c(F)c(Nc2ccc(I)cc2F)c1NS(=O)(=O)C1(C[C@H](O)CO)CC1 [Refametinib]
- drug sensitivity score (MDA-MB-468): 6.47
- drug sensitivity score (BT-549): 0
- drug sensitivity score (MDA-MB-436): 0
- drug sensitivity score (CAL-85-1): 12.3
- drug sensitivity score (HCC1599): 0
- drug sensitivity score (HCC1143): 0
- drug sensitivity score (MDA-MB-231): 16.3
- drug sensitivity score (HDQ-P1): 0
- drug sensitivity score (MCF-10A): 0
- drug sensitivity score (DU-4475): 8.58

Compound: CC(C)(C)c1cnc(CSc2cnc(NC(=O)C3CCNCC3)s2)o1 [SNS-032]
- drug sensitivity score (MDA-MB-468): 3.58
- drug sensitivity score (BT-549): 7.86
- drug sensitivity score (MDA-MB-436): 0
- drug sensitivity score (CAL-85-1): 20.9
- drug sensitivity score (HCC1599): 0
- drug sensitivity score (HCC1143): 0
- drug sensitivity score (MDA-MB-231): 30.8
- drug sensitivity score (HDQ-P1): 11.4
- drug sensitivity score (MCF-10A): 16.3
- drug sensitivity score (DU-4475): 0

Compound: Cn1cnc2c(F)c(Nc3ccc(Br)cc3Cl)c(C(=O)NOCCO)cc21 [Selumetinib]
- drug sensitivity score (MDA-MB-468): 6.94
- drug sensitivity score (BT-549): 0
- drug sensitivity score (MDA-MB-436): 0
- drug sensitivity score (CAL-85-1): 0
- drug sensitivity score (HCC1599): 0
- drug sensitivity score (HCC1143): 0
- drug sensitivity score (MDA-MB-231): 13.2
- drug sensitivity score (HDQ-P1): 2.06
- drug sensitivity score (MCF-10A): 0
- drug sensitivity score (DU-4475): 8.17

Compound: Nc1nc2[nH]cnc2c(=S)[nH]1 [Thioguanine]
- drug sensitivity score (MDA-MB-468): 0
- drug sensitivity score (BT-549): 0
- drug sensitivity score (MDA-MB-436): 0
- drug sensitivity score (CAL-85-1): 0
- drug sensitivity score (HCC1599): 0
- drug sensitivity score (HCC1143): 0
- drug sensitivity score (MDA-MB-231): 0
- drug sensitivity score (HDQ-P1): 0
- drug sensitivity score (MCF-10A): 0
- drug sensitivity score (DU-4475): 0

From the supplement of paper PMC4862054
